The text below walks through data of ChEMBL document CHEMBL1201862, “PubChem BioAssay data set” (2004).

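Step 1: Grow cells in 96-well plates. Step 2: Expose to compound for 48 hours at 5 concentrations. Step 3: Interpolate endpoints linearly; if unreached, use highest concentration. GI50 = concentration required for 50% inhibition of growth.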 Active and inactive are the calls of the source. Rule as the data show it: active = GI50 up to about 1.1 µM and inactive = higher. A value given as a limit tells only on which side of the number the result lay.

Test systems include SK-OV-3; U-251; ACHN; LOX IMVI; SR; NCI-H460; A549; RPMI-8226; K562; MOLT-4; HL-60; UACC-257; HCT-15; SNB-75; SK-MEL-5; CCRF-CEM; OVCAR-4; Malme-3M; EKVX; UACC-62.
Experiment in all cases: NCI anticancer screen, dose series, 48 h

As for `COP(C)(=O)/C(Cc1ccccc1)=N\O` (stereo unspecified), the GI50 in the test on SK-OV-3, in the test on U-251, in the test with ACHN, in the test with LOX IMVI, with SR and in the test with NCI-H460 was > 100 µM (inactive) in each case. For the same compound, the GI50 in the test with A549, with RPMI-8226, with K562, in the test with MOLT-4, in the test on HL-60 and in the test on UACC-257 was > 100 µM (inactive) throughout. For the same compound, the GI50 in the test on HCT-15 is more than 100 µM; with SNB-75, > 100 µM (inactive); in the test with SK-MEL-5 it was > 100 µM (inactive); in the test on CCRF-CEM, > 100 µM (inactive); in the test on OVCAR-4, > 100 µM (inactive).
On to `CCOC(=O)c1ccc(C(=O)n2ccnc2)[nH]1`, for which the GI50 in the test on U-251, in the test with ACHN, in the test with LOX IMVI, with SR, in the test with Malme-3M and in the test with NCI-H460 was > 100 µM (inactive) each time. Besides, the GI50 with A549, in the test on RPMI-8226, with EKVX, with K562, with MOLT-4 and in the test with HL-60 was > 100 µM (inactive) in each case. Further, the GI50 is > 100 µM (inactive) in the test on UACC-257; more than 100 µM in the test with HCT-15; > 100 µM (inactive) with UACC-62; 63.5 µM (inactive) in the test with SNB-75; > 100 µM (inactive) in the test with SK-MEL-5; > 100 µM (inactive) in the test on CCRF-CEM. The GI50 in the test on OVCAR-4 was 84.3 µM (inactive).
`CCC1=CCN(c2ccc(C)cc2)OC1c1ccc(OC)cc1` (stereo unspecified): the GI50 in the test with SK-OV-3 was > 100 µM (inactive); in the test with U-251 it was 73.3 µM (inactive); in the test on ACHN, > 100 µM (inactive); in the test on LOX IMVI, > 100 µM (inactive); in the test on SR, 47.4 µM (inactive); with Malme-3M, 66.4 µM (inactive). The GI50 in the test with NCI-H460 was > 100 µM (inactive); with A549 it was 71.8 µM (inactive); in the test on RPMI-8226, 43.3 µM (inactive); in the test with EKVX, > 100 µM (inactive); in the test with K562, 94.8 µM (inactive); in the test with MOLT-4, > 100 µM (inactive). In addition, the GI50 in the test with HL-60 is 68.2 µM (inactive); in the test on UACC-257, 37 µM (inactive); in the test with HCT-15, 47 µM; in the test on UACC-62, > 100 µM (inactive); with SNB-75, > 100 µM (inactive); in the test on CCRF-CEM it was 56.6 µM (inactive). Further, the GI50 in the test on OVCAR-4 is 92.7 µM (inactive).
Regarding `c1ccc2c(c1)nnn2CNc1ccc(N2CCOCC2)cc1`, the GI50 with SK-OV-3 is > 100 µM (inactive); in the test on U-251, > 100 µM (inactive); in the test on ACHN, 67.3 µM (inactive); in the test with LOX IMVI, > 100 µM (inactive); in the test on SR it was 43.3 µM (inactive); in the test on Malme-3M, > 100 µM (inactive). Besides, the GI50 in the test with NCI-H460 is > 100 µM (inactive); in the test on A549, > 100 µM (inactive); in the test with RPMI-8226, 47.4 µM (inactive); in the test on EKVX it was > 100 µM (inactive); in the test with K562, > 100 µM (inactive); with MOLT-4 it was > 100 µM (inactive). Further, the GI50 is 33.3 µM (inactive) in the test with HL-60; > 100 µM (inactive) in the test with UACC-257; more than 100 µM in the test on HCT-15; > 100 µM (inactive) in the test on UACC-62; > 100 µM (inactive) with SNB-75; > 100 µM (inactive) in the test with CCRF-CEM. Also, the GI50 in the test with OVCAR-4 was > 100 µM (inactive).
Regarding `C=C(NC(=O)C(=C)NC(=O)c1ccc2c(n1)-c1coc(n1)C(=C)NC(=O)C(=C)NC(=O)c1nc(oc1C)C(=C)NC(=O)C(C(C)(C)O)NC(=O)C(=C)NC(=O)c1coc(n1)/C(=C/C)NC(=O)[C@H]([C@@H](C)O)NC(=O)c1csc-2n1)C(N)=O` (stereo partly specified), the GI50 is > 87.5 µM (inactive) with U-251; > 87.5 µM (inactive) with ACHN; 53.8 µM (inactive) in the test with LOX IMVI; > 87.5 µM (inactive) in the test with SR; > 87.5 µM (inactive) in the test on Malme-3M; 59.2 µM (inactive) in the test on NCI-H460. The GI50 with A549, in the test on RPMI-8226, in the test on EKVX, with K562, in the test on MOLT-4 and with HL-60 was > 87.5 µM (inactive) throughout. Moreover, the GI50 is > 87.5 µM (inactive) in the test on UACC-257; more than 87.5 µM with HCT-15; > 87.5 µM (inactive) in the test with SNB-75; 41.6 µM (inactive) with SK-MEL-5; > 87.5 µM (inactive) with CCRF-CEM; > 87.5 µM (inactive) with OVCAR-4.
For `O=CNCNCCO`, the GI50 in the test on SK-OV-3, with U-251, in the test on ACHN, with SR, in the test with Malme-3M and in the test on NCI-H460 was > 100 µM (inactive) each time. The GI50 in the test on A549 is > 100 µM (inactive); in the test with RPMI-8226, 31.7 µM (inactive); in the test on EKVX, > 100 µM (inactive); in the test on K562, > 100 µM (inactive); in the test on MOLT-4, > 100 µM (inactive); in the test on HL-60, 20.7 µM (inactive). For the same compound, the GI50 with HCT-15 was more than 100 µM; in the test on UACC-62, 46.9 µM (inactive); in the test on SNB-75, > 100 µM (inactive); with SK-MEL-5, > 100 µM (inactive); in the test with CCRF-CEM, > 100 µM (inactive); in the test with OVCAR-4, > 100 µM (inactive).
As to `COc1cccc(/C=C2\C(=O)N(C(=O)Cc3ccccc3)N=C2C)c1`, the GI50 in the test on U-251 was > 100 µM (inactive); with ACHN, > 100 µM (inactive); in the test on LOX IMVI, > 100 µM (inactive); in the test with SR it was > 100 µM (inactive); in the test on Malme-3M, > 100 µM (inactive); in the test on NCI-H460 it was > 10 µM (inactive). Also, the GI50 in the test with A549, with RPMI-8226, in the test with EKVX, in the test on K562, in the test on MOLT-4 and with HL-60 was > 100 µM (inactive) in each case. The GI50 in the test on UACC-257 is > 100 µM (inactive); in the test on HCT-15, more than 100 µM; in the test with SNB-75, > 100 µM (inactive); with SK-MEL-5, > 100 µM (inactive); with CCRF-CEM, > 100 µM (inactive); in the test with OVCAR-4, > 100 µM (inactive).
Regarding `COc1cc(C2C(C(=O)NCc3ccccc3)=C(C)NC(C)=C2C(=O)NCc2ccccc2)ccc1O`, the GI50 is 28.6 µM (inactive) with U-251; 42.5 µM (inactive) in the test with ACHN; 32.6 µM (inactive) in the test with LOX IMVI; 20.2 µM (inactive) in the test with SR; > 100 µM (inactive) in the test with Malme-3M; 24.3 µM (inactive) with NCI-H460. The GI50 in the test on A549 was 77.4 µM (inactive); in the test with RPMI-8226, 23 µM (inactive); in the test with EKVX, 16.6 µM (inactive); in the test with K562, 30.8 µM (inactive); with MOLT-4 it was 20.4 µM (inactive); in the test on HL-60, 25.4 µM (inactive). The GI50 is 44.1 µM (inactive) with UACC-257; 27.6 µM with HCT-15; 21.8 µM (inactive) in the test with UACC-62; 44.9 µM (inactive) with SNB-75; 59.4 µM (inactive) in the test on SK-MEL-5; 26.3 µM (inactive) with CCRF-CEM. The GI50 with OVCAR-4 was 40.1 µM (inactive).
Consider `C(=C\Nc1ccc(Oc2ccccc2)cc1)/C=N/c1ccc(Oc2ccccc2)cc1`, for which the GI50 in the test with U-251 is 19.1 µM (inactive); in the test on ACHN, 19.6 µM (inactive); with LOX IMVI, 15 µM (inactive); with SR, 19.4 µM (inactive); with Malme-3M, 17.1 µM (inactive); in the test on NCI-H460 it was 16.7 µM (inactive). Further, the GI50 with A549 is 22.1 µM (inactive); in the test on RPMI-8226 it was 21.8 µM (inactive); in the test on EKVX it was 18.4 µM (inactive); with K562, 22.5 µM (inactive); with MOLT-4, > 10 µM (inactive); with HL-60, 23.7 µM (inactive). Also, the GI50 is 17.1 µM (inactive) in the test on UACC-257; 19.5 µM in the test on HCT-15; 17.2 µM (inactive) with SNB-75; 15.3 µM (inactive) in the test on CCRF-CEM; 17.1 µM (inactive) in the test on OVCAR-4.
Turning to `Cc1ccc(S(=O)(=O)N/N=C2\C=C[C@]3(CC2)C(=O)N(C)c2ccccc23)cc1`, the GI50 in the test on SK-OV-3, in the test on U-251, in the test with ACHN, with LOX IMVI, in the test with SR and in the test with NCI-H460 was > 100 µM (inactive) in each case. The GI50 with A549, in the test with RPMI-8226, in the test with EKVX, with K562, in the test with MOLT-4 and with HL-60 was > 100 µM (inactive) throughout. The GI50 in the test on UACC-257 is > 100 µM (inactive); in the test on HCT-15, more than 100 µM; in the test on UACC-62, > 100 µM (inactive); with SNB-75, > 100 µM (inactive); with SK-MEL-5, > 100 µM (inactive); in the test with CCRF-CEM, > 100 µM (inactive). Besides, the GI50 in the test on OVCAR-4 was > 100 µM (inactive).
Take `CN(C)Cc1cc(/N=N/c2ccc(Cl)cc2)ccc1OC(=O)c1ccccc1`: the GI50 in the test on U-251 was 15 µM (inactive); with ACHN, 14.5 µM (inactive); in the test on LOX IMVI, 12.4 µM (inactive); in the test with SR it was 12 µM (inactive); in the test on Malme-3M, 16.7 µM (inactive); in the test with NCI-H460, 15.3 µM (inactive). The GI50 was 3.26 µM (inactive) in the test on A549; 15.6 µM (inactive) in the test on RPMI-8226; 12.1 µM (inactive) with EKVX; 14.4 µM (inactive) with K562; 8.85 µM (inactive) with MOLT-4; 13.5 µM (inactive) in the test with HL-60. Moreover, the GI50 is 19.2 µM (inactive) with UACC-257; 12.9 µM in the test on HCT-15; 17 µM (inactive) in the test with SNB-75; 14.9 µM (inactive) with SK-MEL-5; 15.3 µM (inactive) in the test with CCRF-CEM; 14.1 µM (inactive) with OVCAR-4.
